We go through two compounds from US20260232847A1, “Nanoparticles For Imaging And Treatment Of Arthritis And Inflammatory Joint Diseases” (Cornell University, priority 2023, published 2026).

Series [1] in a line: In vivo joint clearance pharmacokinetics after intraarticular injection, longitudinal IVIS fluorescence imaging. Set-up: species or system rat. The procedure:
Animals. All procedures were performed according to protocols approved by the Institutional Animal Care and Use Committee (IACUC) or Cornell University. Sprague Dawley male rats ([…], 300-325 g; Charles River Laboratories, Wilmington, MA) were housed in pairs under a standard 12 h light/dark cycle starting at 6:00 a.m. The animals were allowed to move freely in their cages, fed a low-fluorescence commercial diet (Teklad 2914) and were allowed access to tap water.
Animal Study Design. Rats were randomly assigned to (1) unoperated controls (naïve) and (2) those receiving ipsilateral anterior cruciate ligament transection (ACLT) and contralateral sham to model arthritic pathological joint changes (FIGS. 9A and B). Naïve rats were further split into pilot studies for intraarticular bilateral injection of Cy5 free fluorophore (n=2), unilateral C′ Dot injection with contralateral saline (n=4), and bilateral C′ Dot injection (n=4). Animals that received bilateral surgery were further split into groups where one group received no intraarticular injections (n=4) and one group received bilateral intraarticular injection of C′ Dots one week post-operatively (n=6). Selected animals underwent ACLT surgery on a randomly assigned knee via an open surgical approach under 2.5% isoflurane anesthesia at 1 L/min O2, as previously described. Complete transection of the ACL was confirmed by a cranial drawer test. A single dose of Ethiqa XR (slow release buprenorphine) was administered subcutaneously at 0.65 mg/kg just prior to ACLT surgery. The animals could ambulate, eat, and drink ad libitum after surgery.
Intraarticular injection. Under 3% isoflurane anesthesia, the lower abdominal region (distal to sternum) including the front and back of both stifles was clipped to remove fur and sterilized with three alternating wipes of iodine and ethanol. […]
In vivo longitudinal fluorescence imaging. Longitudinal fluorescence images of rats receiving Cy5 or C′ Dot intraarticular injections were recorded using the In Vivo Imaging System (IVIS) Kinetic (Perkin Elmer; Waltham, MA) over one week for Cy5 injection at the following timepoints: 0, 1, 2, 4, 8, 12, 24, 48, and 72 h, and at 7 d (FIG. 9S3). […] Each week, rat fur was clipped as described above and animal weights were recorded. […] Fluorescence was set at 640 nm/680 nm excitation/emission optimized for Cyanine-5 and C′ Dots.
IVIS image analysis. […] Total Radiant Efficiency (TRE) (area sum of ((p/sec/cm^2/sr)/(ρW/cm^2))) was recorded for each stifle at each time point for the duration of imaging. Average TRE from saline-injected stifles (n=4) was subtracted from all stifle TRE measurements as tissue fluorescence background. […]

The conditions of series [2]: in vivo; cited from earlier work.
The conditions of series [3]: in vitro; cited from earlier work.

Take `CN1C(=CC=CC=CC2=[N+](CCCCCC(=O)O)c3ccc(S(=O)(=O)O)cc3C2(C)C)C(C)(C)c2cc(S(=O)(=O)[O-])ccc21` [Cy5, Sulfo-Cyanine-5-carboxylic acid]: the “time constant τ, single exponential decay” value in series [1] (naïve knees, Eq 2) was 0.6 h. For the same compound, in series [1] (naïve rat knees), the “time after which fluorescence was undetectable” value amounted to 3 days. In addition, the “time of signal peak” value in series [1] (naïve rat knees, Cy5 dye injection) is given as 0 h. In addition, in series [1] (t1/2=ln(2)*τ), the “half-life t1/2,1” value is on record as 0.4 h.
With “anakinra: established DMARD, anakinra (Kineret)”, in series [2], the “half-life in the knee / joint half-life” value is 24 h. The “duration of anti-inflammatory effects” value in series [3] is listed as 2 days.
